Laboratory results published in patent publication US11453858B2, “Human plasma-like medium” (Whitehead Institute for Biomedical Research, priority 2016, dated 2022).

Key:
recombinant UMPS = molecular target: T1, recombinant UMPS (Homo sapiens, UniProt P11172); assay: in vitro UMPS activity assay (LC/MS detection of OMP and UMP); format: biochemical; conditions: for UMP production by UMPS / abundance of OMP: increasing concentrations of inhibitor
T1 construct: The UMPS gene was amplified from the pDONR223-UMPS template using the primers JC624/JC625; made in house; host or cells: HEK-293T cells, transient transfection, anti-FLAG immunopurification
T1 sequence (P11172 2-480 limits assumed): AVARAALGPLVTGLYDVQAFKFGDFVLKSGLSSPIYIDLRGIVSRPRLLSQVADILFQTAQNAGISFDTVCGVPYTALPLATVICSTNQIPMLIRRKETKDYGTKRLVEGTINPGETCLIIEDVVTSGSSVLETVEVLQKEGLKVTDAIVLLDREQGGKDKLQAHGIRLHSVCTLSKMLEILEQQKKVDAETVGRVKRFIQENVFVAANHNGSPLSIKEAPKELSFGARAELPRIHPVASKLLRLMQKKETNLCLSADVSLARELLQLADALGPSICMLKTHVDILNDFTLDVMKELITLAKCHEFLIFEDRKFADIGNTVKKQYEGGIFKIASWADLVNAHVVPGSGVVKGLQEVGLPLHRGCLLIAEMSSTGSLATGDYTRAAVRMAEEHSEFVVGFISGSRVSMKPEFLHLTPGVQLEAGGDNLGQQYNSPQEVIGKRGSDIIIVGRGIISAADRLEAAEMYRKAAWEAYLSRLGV
Experimental: An UMPS mutant (Y37A, R155A), which was designed based on a recently deposited structure of the OPRT domain of human UMPS (Protein Data Bank entry 2WNS, chains A and B) (FIG. 12), had no activity and served as a negative control in the assay.
For metabolite profiling of LIMPS activity assay samples, reaction mixtures were extracted as described (see LIMPS activity assay) and 5 μL of each sample was injected for LC/MS analysis as described for profiling media samples, except that the mass spectrometer was operated in full scan, negative ionization mode only.
For orotate, PRPP, OMP, and UMP in UMPS assay samples, all settings as described for the tSIM scan used for FdUMP and FUMP were identical except that the maximum integration time was 200 msec, and the target masses were 155.0088 (corresponding to orotate), 323.0286 (corresponding to UMP), 367.0184 (corresponding to OMP), and 388.9445 (corresponding to PRPP).
For transfection of HEK-293 T cells, 4 million cells were plated in 15 cm culture dishes. After 24 hr, cells were transfected with 15 μg of pLJC2-UMPS-3×FLAG or pLJC2-UMPS (Y37A, R155A)-3×FLAG using the polyethylenimine method (Boussif et al., 1995). After 48 hr, cells were rinsed one time with ice-cold PBS and then immediately lysed with lysis buffer (1% Triton X-100, 40 mM Tris-HCl pH 7.5, 100 mM NaCl, 5 mM MgCl2, 1 tablet of EDTA-free protease inhibitor (Roche 11580800; per 25 mL buffer), 1 tablet of PhosStop phosphatase inhibitor (Roche 04906845001; per 10 mL buffer)). The cell lysates were cleared by centrifugation at 21130 g for 10 min at 4° C. For anti-FLAG immunoprecipitation, the FLAG-M2 affinity gel (Sigma A2220) was washed 3 times in lysis buffer. For each experiment, 500 μL of a 50/50 slurry of the affinity gel was then added to a pool of clarified lysates collected from 5 individual 15 cm culture dishes, and incubated with rotation for 3 hr at 4° C. Following immunoprecipitation, the beads were washed 2 times in lysis buffer and 3 times with lysis buffer containing 500 mM NaCl. Recombinant protein was then eluted in lysis buffer containing 1 mg/mL FLAG peptide for 1 hr at 4° C. The eluent was isolated by centrifugation at 100 g for 4 min at 4° C. (BioRad micro bio-spin column 732-6204), buffer exchanged (Amicon Ultra 30K NMWL) against 20 volumes of storage buffer (40 mM Tris-HCl pH 7.5, 100 mM NaCl, 1.5 mM dTT), mixed with glycerol (final concentration 15% v/v), and finally snap-frozen with liquid nitrogen and stored at −80° C. Protein samples were quantified using Bradford reagent and a BSA standard, and verified by 12% SDS-PAGE.
Reactions of each purified LIMPS variant (20-40 nM enzyme) with orotate (100 μM) and PRPP (300 μM) were carried out at 37° C. in 20 mM Tris-HCl pH 7.5, 5 mM Na2HPO4, […], 2 mM 2 mM dTT, 100 μM EDTA (adapted from (Han et al., 1995)), and various concentrations of putative inhibitors in a total volume of 100 μL. Following 20 min incubation, a 15 μL aliquot of the reaction mixture was removed and immediately added to 85 μL ice-cold 80% methanol for metabolite extraction, vortexed for 5 min, and centrifuged at 21130 g for 1 min at 4° C.
Stock solutions of 6-azauridine, 6-aza-UMP, 9-methyluric acid, allantoin, allopurinol, and uric acid were made up fresh at 200 mM in 1 M NaOH, and upon appropriate dilutions, had little effect on reaction pH.
An OMP chemical standard was not available.

K562 cells = assay: metabolite profiling of K562 cells (intracellular pyrimidine pathway metabolites); format: cell-based, human
Experimental: To determine which component(s) of HPLM^+dIFS affects the de novo pyrimidine synthesis pathway, K562 cells were cultured in HPLM^+dIFS derivatives lacking: (1) acetone, creatine, creatinine, formate, fructose, galactose, glutathione, glycerol, and hypoxanthine; (2) non-proteinogenic amino acids (8 metabolites); (3) water-soluble acids (8 metabolites); (4) urea; or (5) uric acid (FIG. 5A). […] HPLM^+dIFS contains uric acid at […], a concentration that is 40- and at least 500-fold greater than that of RPMI^+IFS and RPMI^+dIFS, respectively (FIG. 5C), and, importantly, its intracellular concentration reflects that of the corresponding culture medium (FIG. 5D).
To determine whether uric acid might cause inhibition of UMPS, an established UMPS inhibitor was studied to see if it had similar effects on the de novo pyrimidine biosynthesis pathway as uric acid in disclosed cells. […] Using LC/MS-based metabolite profiling, a species whose mass-to-charge ratio (m/z) matched the predicted m/z of allopurinol ribonucleotide was detected, and the magnitude correlated with the concentration of allopurinol in the media (FIG. 11D). Importantly, this species could be distinguished from its isomer, IMP, by their differing chromatographic retention times. […] However, a metabolite peak consistent with a putative uric acid ribonucleotide was not detected.
(§1) After 24 hr incubation, cells were centrifuged at 250 g for 5 min, resuspended in 1 mL ice-cold 0.9% sterile NaCl, and again centrifuged at 250 g for 5 min at 4° C. Metabolites were extracted in a 1 mL solution of 80% methanol containing 10 ng/mL phenylalanine-d8 as an internal standard. Following a 10 min vortex and centrifugation for […] 10 min at 4° C., samples were dried under nitrogen gas. Dried samples were stored at −80° C. and then resuspended in 100 μL water; 4 μL of each cell sample was injected for LC/MS analysis as described for profiling media samples. For all experiments, an additional culture replicate was set up identically and used for measuring cell number and volume, which were each measured using a Beckman Z2 Coulter Counter with a diameter setting of 8-30 μm.

NOMO1 cells [1] = assay: drug treatment assay, cell viability by Cell Titer-Glo; format: cell-based, human
Experimental: After 24 hr incubation, cells were treated with 5-FU (100 nM, 1 μM, 10 μM, 100 μM, or 1 mM) or doxorubicin (1.95 nM, 7.81 nM, 31.25 nM, 125 nM, or 500 nM). All wells, including untreated controls, contained 0.5% DMSO. Following addition of drugs, plates were gently shaken for 2 min. After 4 days of treatment, 200 μL from each well was transferred to a white 96-well plate (Greiner) and cell viability was assessed with Cell Titer-Glo (Promega). Luminescence was measured with a SpectraMax M5 Plate Reader (Molecular Devices) and normalized to an untreated control.
(§2) Dose-response values were plotted in GraphPad Prism and fit using a One Site-Fit log IC50 equation.

SW620 cells = assay: drug treatment assay, cell viability by Cell-Titer Glo; format: cell-based, human; conditions: removal of uric acid from HPLM+dIFS
Experimental: SW620 cells were seeded at a density of 2000 cells/well and allowed to attach for 24 hr. 5-FU and doxorubicin were prepared in DMSO and dispensed using an HP D300 compound dispenser. Cell viability was assessed with Cell-Titer Glo at 4 days following treatment and luminescence was measured as described above.
as §2

ODC domain of UMPS = molecular target: T2, ODC domain of UMPS (Homo sapiens, UniProt P11172); conditions: literature; cited from earlier work
T2 sequence (P11172 1-480): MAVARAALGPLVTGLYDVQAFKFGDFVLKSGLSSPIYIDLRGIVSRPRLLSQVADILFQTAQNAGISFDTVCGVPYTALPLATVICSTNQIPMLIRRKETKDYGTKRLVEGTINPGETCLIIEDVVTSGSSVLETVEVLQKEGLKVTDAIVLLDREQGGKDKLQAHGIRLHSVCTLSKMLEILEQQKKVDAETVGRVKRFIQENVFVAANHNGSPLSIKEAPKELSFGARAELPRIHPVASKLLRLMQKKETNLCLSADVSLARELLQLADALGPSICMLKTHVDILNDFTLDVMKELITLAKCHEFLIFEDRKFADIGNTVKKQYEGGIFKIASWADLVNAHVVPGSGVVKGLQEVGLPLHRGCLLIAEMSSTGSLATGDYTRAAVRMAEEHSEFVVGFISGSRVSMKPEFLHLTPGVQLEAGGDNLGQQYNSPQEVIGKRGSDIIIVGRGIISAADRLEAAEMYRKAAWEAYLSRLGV

NOMO1 cells [2] = assay: 5-FU treatment for LC/MS (intracellular 5-FU, FdUMP, FUMP); conditions: 20 μM 5-FU, 24 hr
[3] = test system: six hematological cancer cell lines; assay: metabolite profiling of six hematological cancer cell lines; format: cell-based, human; conditions: 350 μM uric acid added to RPMI+IFS, compared to RPMI+IFS
Experimental: To test the hypothesis that culturing cells in a medium that better mimics the metabolic composition of human plasma alters cellular metabolism compared to that in established media, the metabolite profiles of cells cultured in HPLM^+dIFS were compared to those in RPMI^+IFS or RPMI^+dIFS.
as §1

[4] = test system: certain cancer cell lines; conditions: Schwartz and Handschumacher, 1979; cited from earlier work

## Cn1c(=O)[nH]c2c(=O)[nH]c(=O)[nH]c21 [9-methyluric acid]
Recombinant UMPS
  direct inhibition of UMPS: did not directly inhibit UMPS
K562 cells; 350 μM in HPLM+dIFS, compared to HPLM+dIFS lacking uric acid
  levels of orotate, orotidine, or the other intermediates in the de novo pyrimidine biosynthesis pathway: did not alter the levels

## COc1cccc2c1C(=O)c1c(O)c3c(c(O)c1C2=O)C[C@@](O)(C(=O)CO)C[C@@H]3O[C@H]1C[C@H](N)[C@H](O)[C@H](C)O1 [doxorubicin]
NOMO1 cells [1]; culture in HPLM+dIFS compared to RPMI+IFS and RPMI+dIFS
  potency of doxorubicin: without affecting the potency of doxorubicin
NOMO1 cells [1]; removal of uric acid from HPLM+dIFS
  doxorubicin sensitivity: without affecting doxorubicin sensitivity
SW620 cells
  doxorubicin sensitivity: did not influence doxorubicin sensitivity

## O=c1cnn([C@@H]2O[C@H](COP(=O)(O)O)[C@@H](O)[C@H]2O)c(=O)[nH]1 [6-aza-UMP]
Recombinant UMPS; 6-aza-UMP at 50 μM
  UMP levels relative to reactions containing vehicle: ~3%
Recombinant UMPS
  UMP production by UMPS: dose-dependently decreased UMP production by UMPS
  abundance of OMP: dramatically increased the abundance of OMP
ODC domain of UMPS
  inhibition of the ODC domain of UMPS: competitively inhibit the ODC domain of UMPS

## O=c1[nH]cc(F)c(=O)[nH]1 [5-FU, 5-Fluorouracil]
NOMO1 cells [2]; uric acid-containing HPLM+dIFS
  FUMP levels: below the limit of detection
NOMO1 cells [2]; uric acid-containing HPLM+dIFS vs lacking uric acid
  intracellular abundances of FdUMP and 5-FU: little effect

## O=c1[nH]c(=O)c2[nH]c(=O)[nH]c2[nH]1 [uric acid]
Recombinant UMPS
  direct inhibition of UMPS: direct inhibitor of the ODC domain of UMPS
  UMP production by UMPS: dose-dependently inhibited UMP production by UMPS
  abundance of OMP: increased OMP
Recombinant UMPS; uric acid at 1 mM
  UMP levels relative to reactions containing vehicle: ~30%
K562 cells; HPLM+dIFS containing increasing concentrations of uric acid
  orotate and orotidine abundances: dose-dependently increased orotate and orotidine abundances
K562 cells; dropout formulations of HPLM+dIFS
  orotate and orotidine levels on removal of the component from HPLM+dIFS: reduced orotate and orotidine levels to those of cells cultured in RPMI
K562 cells; highest tested concentration (700 μM)
  accumulation of OMP: led to a detectable accumulation of OMP
[3]
  UTP abundance: cell line-dependent effects on UTP abundance
  orotate and orotidine levels: greatly boosted orotate and orotidine levels

## O=c1[nH]cnc2c1cnn2C1O[C@H](COP(=O)(O)O)[C@@H](O)[C@H]1O (stereo partly drawn) [allopurinol ribonucleotide]
ODC domain of UMPS
  inhibition of the ODC domain of UMPS: competitively inhibit the ODC domain of UMPS

## NC(=O)NC1NC(=O)NC1=O (stereo not drawn) [allantoin]
Recombinant UMPS
  direct inhibition of UMPS: did not directly inhibit UMPS

## O=c1cnn([C@@H]2O[C@H](CO)[C@@H](O)[C@H]2O)c(=O)[nH]1 [6-azauridine]
Recombinant UMPS
  direct inhibition of UMPS: did not directly inhibit UMPS

## Oc1ncnc2[nH]ncc12 [allopurinol]
Recombinant UMPS
  direct inhibition of UMPS: did not directly inhibit UMPS
K562 cells; HPLM+dIFS lacking uric acid, increasing concentrations of allopurinol
  levels of carbamoylaspartate, dihydroorotate, orotate, orotidine, and OMP: dose-dependently increased the levels
K562 cells; highest tested concentration of allopurinol
  decrease in abundance of UTP: ~30%
[4]
  sensitivity of cancer cell lines to 5-FU: reduces the sensitivity of certain cancer cell lines to 5-FU
